According to PubChem BioAssay (NCI):
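1) Cells in 96-well plates. 2) Compound, 48 h, 5 concentrations. 3) Linear interpolation between surrounding doses. 4) Unreached endpoint = highest concentration. TGI denotes the concentration required for complete inhibition of growth.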

Experiments:
Test in all cases: DTP human tumour cell line panel, 48 h
SN12C renal = test system: SN12C renal
SK-OV-3 ovarian = test system: SK-OV-3 ovarian
HT29 colon = test system: HT29 colon
SK-MEL-5 melanoma = test system: SK-MEL-5 melanoma
A498 renal = test system: A498 renal
NCI/ADR-RES ovarian = test system: NCI/ADR-RES ovarian
NCI-H460 lung = test system: NCI-H460 lung
BT-549 breast = test system: BT-549 breast
MDA-MB-231 breast = test system: MDA-MB-231 breast
MDA-MB-435 = test system: MDA-MB-435
NCI-H23 lung = test system: NCI-H23 lung
OVCAR-8 ovarian = test system: OVCAR-8 ovarian
HS 578T breast = test system: HS 578T breast
SF-539 CNS = test system: SF-539 CNS
SNB-19 CNS = test system: SNB-19 CNS
M14 melanoma = test system: M14 melanoma
K-562 leukemia = test system: K-562 leukemia
HCT-116 colon = test system: HCT-116 colon
MCF7 breast = test system: MCF7 breast
U251 CNS = test system: U251 CNS
UACC-62 melanoma = test system: UACC-62 melanoma
DU-145 prostate = test system: DU-145 prostate
EKVX NSCLC = test system: EKVX NSCLC
MOLT-4 leukemia = test system: MOLT-4 leukemia
UACC-257 melanoma = test system: UACC-257 melanoma
SNB-75 CNS = test system: SNB-75 CNS
HL-60(TB) leukemia = test system: HL-60(TB) leukemia
NCI-H226 lung = test system: NCI-H226 lung
SR leukemia = test system: SR leukemia
OVCAR-4 ovarian = test system: OVCAR-4 ovarian
LOX IMVI melanoma = test system: LOX IMVI melanoma
CAKI-1 renal = test system: CAKI-1 renal
T-47D breast = test system: T-47D breast
OVCAR-3 ovarian = test system: OVCAR-3 ovarian
HCT-15 colon = test system: HCT-15 colon
RXF 393 renal = test system: RXF 393 renal
SK-MEL-2 melanoma = test system: SK-MEL-2 melanoma
MDA-N = test system: MDA-N
HOP-62 NSCLC = test system: HOP-62 NSCLC
MALME-3M melanoma = test system: MALME-3M melanoma
SW-620 colon = test system: SW-620 colon
SK-MEL-28 melanoma = test system: SK-MEL-28 melanoma
COLO 205 colon = test system: COLO 205 colon
SF-268 CNS = test system: SF-268 CNS
786-0 renal = test system: 786-0 renal
KM12 colon = test system: KM12 colon
OVCAR-5 ovarian = test system: OVCAR-5 ovarian
RPMI-8226 leukemia = test system: RPMI-8226 leukemia
HOP-92 NSCLC = test system: HOP-92 NSCLC
A549 NSCLC = test system: A549 NSCLC
UO-31 renal = test system: UO-31 renal
IGROV1 ovarian = test system: IGROV1 ovarian
CCRF-CEM leukemia = test system: CCRF-CEM leukemia
PC-3 prostate = test system: PC-3 prostate
SF-295 CNS = test system: SF-295 CNS
HCC-2998 colon = test system: HCC-2998 colon
ACHN renal = test system: ACHN renal
NCI-H522 lung = test system: NCI-H522 lung
TK-10 renal = test system: TK-10 renal

CCOC(=O)c1cc(C2CCN(CC(C)CC)C2=S)c(-c2cc(C)no2)[nH]1 (stereo not drawn)
TGI (SN12C renal): > 100 µM | TGI (SK-OV-3 ovarian): > 100 µM | TGI (HT29 colon): > 100 µM | TGI (SK-MEL-5 melanoma): > 100 µM | TGI (A498 renal): > 100 µM | TGI (NCI/ADR-RES ovarian): > 100 µM | TGI (NCI-H460 lung): > 100 µM | TGI (BT-549 breast): > 100 µM | TGI (MDA-MB-231 breast): > 100 µM | TGI (MDA-MB-435): > 100 µM | TGI (NCI-H23 lung): > 100 µM | TGI (OVCAR-8 ovarian): > 100 µM | TGI (HS 578T breast): > 100 µM | TGI (SF-539 CNS): > 100 µM | TGI (SNB-19 CNS): > 100 µM | TGI (M14 melanoma): > 100 µM | TGI (K-562 leukemia): > 100 µM | TGI (HCT-116 colon): > 100 µM | TGI (MCF7 breast): > 100 µM | TGI (U251 CNS): > 100 µM | TGI (UACC-62 melanoma): > 100 µM | TGI (DU-145 prostate): > 100 µM | TGI (EKVX NSCLC): > 100 µM | TGI (MOLT-4 leukemia): > 100 µM | TGI (UACC-257 melanoma): > 100 µM | TGI (SNB-75 CNS): > 100 µM | TGI (HL-60(TB) leukemia): > 100 µM | TGI (NCI-H226 lung): > 100 µM | TGI (SR leukemia): > 100 µM | TGI (OVCAR-4 ovarian): > 100 µM | TGI (LOX IMVI melanoma): > 100 µM | TGI (CAKI-1 renal): > 100 µM | TGI (T-47D breast): > 100 µM | TGI (OVCAR-3 ovarian): > 100 µM | TGI (HCT-15 colon): > 100 µM | TGI (RXF 393 renal): > 100 µM | TGI (SK-MEL-2 melanoma): > 100 µM | TGI (MDA-N): > 100 µM | TGI (HOP-62 NSCLC): > 100 µM | TGI (MALME-3M melanoma): > 100 µM | TGI (SW-620 colon): > 100 µM | TGI (SK-MEL-28 melanoma): > 100 µM | TGI (COLO 205 colon): > 100 µM | TGI (SF-268 CNS): > 100 µM | TGI (786-0 renal): > 100 µM | TGI (KM12 colon): > 100 µM | TGI (OVCAR-5 ovarian): > 100 µM | TGI (RPMI-8226 leukemia): > 100 µM | TGI (HOP-92 NSCLC): > 100 µM | TGI (A549 NSCLC): > 100 µM | TGI (UO-31 renal): 82.4 µM | TGI (IGROV1 ovarian): > 100 µM | TGI (CCRF-CEM leukemia): > 100 µM | TGI (PC-3 prostate): > 100 µM | TGI (SF-295 CNS): > 100 µM | TGI (HCC-2998 colon): > 100 µM

COc1cc(-c2c(C#N)c(N)c(C#N)c3c2COc2ccccc2-3)cc(OC)c1OC
TGI (SN12C renal): > 84.4 µM | TGI (SK-OV-3 ovarian): 32.4 µM | TGI (HT29 colon): > 100 µM | TGI (SK-MEL-5 melanoma): > 100 µM | TGI (A498 renal): > 100 µM | TGI (NCI/ADR-RES ovarian): > 100 µM | TGI (NCI-H460 lung): > 100 µM | TGI (BT-549 breast): > 75.4 µM | TGI (MDA-MB-231 breast): 40.2 µM | TGI (MDA-MB-435): > 100 µM | TGI (NCI-H23 lung): > 60.8 µM | TGI (OVCAR-8 ovarian): 97.6 µM | TGI (HS 578T breast): 39.7 µM | TGI (SF-539 CNS): 19.9 µM | TGI (SNB-19 CNS): > 43.5 µM | TGI (M14 melanoma): > 100 µM | TGI (ACHN renal): > 100 µM | TGI (K-562 leukemia): > 100 µM | TGI (HCT-116 colon): > 100 µM | TGI (MCF7 breast): > 100 µM | TGI (U251 CNS): 34.4 µM | TGI (UACC-62 melanoma): > 100 µM | TGI (DU-145 prostate): > 100 µM | TGI (EKVX NSCLC): > 69.4 µM | TGI (MOLT-4 leukemia): > 100 µM | TGI (UACC-257 melanoma): > 100 µM | TGI (HL-60(TB) leukemia): > 100 µM | TGI (NCI-H226 lung): 59.4 µM | TGI (SR leukemia): > 100 µM | TGI (OVCAR-4 ovarian): > 64.8 µM | TGI (LOX IMVI melanoma): > 100 µM | TGI (CAKI-1 renal): > 100 µM | TGI (T-47D breast): > 100 µM | TGI (OVCAR-3 ovarian): > 83.8 µM | TGI (HCT-15 colon): > 100 µM | TGI (RXF 393 renal): 34.4 µM | TGI (SK-MEL-2 melanoma): > 77.6 µM | TGI (MDA-N): > 100 µM | TGI (NCI-H522 lung): > 100 µM | TGI (HOP-62 NSCLC): 19 µM | TGI (MALME-3M melanoma): 48.8 µM | TGI (SW-620 colon): > 100 µM | TGI (SK-MEL-28 melanoma): > 100 µM | TGI (COLO 205 colon): > 100 µM | TGI (SF-268 CNS): 34 µM | TGI (KM12 colon): > 100 µM | TGI (OVCAR-5 ovarian): > 100 µM | TGI (RPMI-8226 leukemia): > 100 µM | TGI (HOP-92 NSCLC): 38.6 µM | TGI (A549 NSCLC): > 100 µM | TGI (UO-31 renal): > 69.8 µM | TGI (TK-10 renal): 40.3 µM | TGI (IGROV1 ovarian): > 79.6 µM | TGI (CCRF-CEM leukemia): > 100 µM | TGI (PC-3 prostate): > 100 µM | TGI (SF-295 CNS): 58.5 µM | TGI (HCC-2998 colon): > 100 µM
